Values of other authors as cited in PubChem BioAssay AID1259409 (Chemical Carcinogenesis Research Information System (CCRIS), 2018).

System: rodent chemically induced tumor inhibition, incidence and multiplicity
Assay: CCRIS tumor inhibitor studies
Settings: Route [Inhibitor]: ORAL, Species: RAT

CCCCCCOc1cc(C)c(O)c(C)c1C
tumour outcome (control, treated, inhibition, significance) (Carcinogen: 1,2-DIMETHYLBHYDRAZINE [540-73-8], Dose [Inhibitor]: 0.5% IN DIET FOR 32 WK BEGINNING 1 WK POST LAST CARCINOGEN DOSE (STUDY DURATION: 36 WK), Strain/Sex: F344/MALE, Target Tissue: Type of Lesion: COLON: ADENOMA OR CARCINOMA, Dose [Carcinogen]: 40 MG/KG BW 1X/WK FOR 4 WK (STUDY DURATION: 36 WK), Promoter: 2-AMINO-1-METHYL-6-PHENYLIMIDAZO[4,5-B]PYRIDINE [105650-23-5]): 20/21 (95%), 19/19 (100%), -5%, not significant | tumour outcome (control, treated, inhibition, significance) (Carcinogen: 2-AMINO-1-METHYL-6-PHENYL-1H-IMIDAZO[4,5-B]PYRID INE, 105650-23-5, Dose [Inhibitor]: 0, 0.5% IN THE DIET FOR 52 WK (STUDY DURATION: 52 WK), Strain/Sex: F344/FEMALE, Target Tissue: Type of Lesion: MAMMARY GLAND: ADENOCARCINOMA FIBROADENOMA, Dose [Carcinogen]: 0.02% IN THE DIET FOR 52 WK, Promoter: NONE USED): 2/20 (10%), 0/21 (0%), 100%, not significant | tumour outcome (control, treated, inhibition, significance) (Carcinogen: 2-AMINO-1-METHYL-6-PHENYL-1H-IMIDAZO[4,5-B]PYRID INE, 105650-23-5, Dose [Inhibitor]: 0, 0.5% IN THE DIET FOR 52 WK (STUDY DURATION: 52 WK), Strain/Sex: F344/FEMALE, Target Tissue: Type of Lesion: MAMMARY GLAND: ADENOCARCINOMA, Dose [Carcinogen]: 0.02% IN THE DIET FOR 52 WK, Promoter: NONE USED): 8/20 (40%), 1/21 (5%), 88%, p< 0.01 | tumour outcome (control, treated, inhibition, significance) (Carcinogen: 2-AMINO-1-METHYL-6-PHENYLIMIDAZO[4,5-B]PYRIDINE, 105650-23-5, Dose [Inhibitor]: 0, 0.5% IN DIET FOR 52 WK CONCURRENTLY WITH CARCINOGEN TREATMENT (STUDY DURATION: 52 WK), Strain/Sex: F344/FEMALE, Target Tissue: Type of Lesion: LARGE INTESTINE: ADENOMA OR CARCINOMA, Dose [Carcinogen]: 0.02% IN DIET FOR 52 WK, Promoter: NONE USED): 2/18 (11%), 0/21 (0%), 100%, not calculated | tumour outcome (control, treated, inhibition, significance) (Carcinogen: 2-AMINO-1-METHYL-6-PHENYLIMIDAZO[4,5-B]PYRIDINE, 105650-23-5, Dose [Inhibitor]: 0, 0.5% IN DIET FOR 52 WK CONCURRENTLY WITH CARCINOGEN TREATMENT (STUDY DURATION: 52 WK), Strain/Sex: F344/FEMALE, Target Tissue: Type of Lesion: MAMMARY GLAND: ADENOCARCINOMA, Dose [Carcinogen]: 0.02% IN DIET FOR 52 WK, Promoter: NONE USED): 8/20 (40%), 1/21 (5%), 88%, p<0.01 | tumour outcome (control, treated, inhibition, significance) (Carcinogen: DIETHYLNITROSAMINE, 55-18-5, N-METHYL-N-NITROSOUREA, 684-63-5, N-BUTYL-N-(4-HYDROXYBUTYL)NITROSAMINE, 3817-11-6, DIMETHY, Carcinogen: DIETHYLNITROSAMINE, 55-18-5, N-METHYL-N-NITROSOUREA, 684-63-5, N-BUTYL-N-(4-HYDROXYBUTYL)NITROSAMINE, 3817-11-6, DIMETHY, Dose [Inhibitor]: 0, 1% IN THE DIET FOR 30 D BEGINNING 1 D PRIOR TO CARCINOGEN TREATMENT (STUDY DURATION: 28 WK), Strain/Sex: F344/MALE, Target Tissue: Type of Lesion: SMALL INTESTINE: CARCINOMA, Dose [Carcinogen]: 100 MG/KG BW DEN ONCE FOLLOWED BY 20 MG/KG BW MNU 4 TIMES AND 0.05% BBN IN DRINKING WATER DURING FIRST 2 WK THEN 40 MG/K, Promoter: NONE USED): 7%, 14%, -100%, not significant | tumour outcome (control, treated, inhibition, significance) (Carcinogen: DIETHYLNITROSAMINE, 55-18-5, N-METHYL-N-NITROSOUREA, 684-93-5, N-BUTYL-N-(4-HYDROXYBUTYL)NITROSAMINE, 3817-11-6, DIMETHY, Carcinogen: DIETHYLNITROSAMINE, 55-18-5, N-METHYL-N-NITROSOUREA, 684-93-5, N-BUTYL-N-(4-HYDROXYBUTYL)NITROSAMINE, 3817-11-6, DIMETHY, Dose [Inhibitor]: 0, 1% IN THE DIET FOR 24 MO BEGINNING 1 DAY POST CARCINOGEN TREATMENT (STUDY DURATION: 28 WK), Strain/Sex: F344/MALE, Target Tissue: Type of Lesion: LARGE INTESTINE: CARCINOMA, Dose [Carcinogen]: 100 MG/KG BW DEN ONCE FOLLOWED BY 20 MG/KG BW MNU 4 TIMES AND 0.05% BBN IN DRINKING WATER DURING FIRST 2 WK THEN 40 MG/K, Promoter: NONE USED): 7%, 7%, 0%, not significant | tumour outcome (control, treated, inhibition, significance) (Carcinogen: DIETHYLNITROSAMINE, 55-18-5, N-METHYL-N-NITROSOUREA, 684-93-5, N-BUTYL-N-(4-HYDROXYBUTYL)NITROSAMINE, 3817-11-6, DIMETHY, Carcinogen: DIETHYLNITROSAMINE, 55-18-5, N-METHYL-N-NITROSOUREA, 684-93-5, N-BUTYL-N-(4-HYDROXYBUTYL)NITROSAMINE, 3817-11-6, DIMETHY, Dose [Inhibitor]: 0, 1% IN THE DIET FOR 24 WK BEGINNING 1 D POST CARCINOGEN TREATMENT (STUDY DURATION: 28 WK), Strain/Sex: F344/MALE, Target Tissue: Type of Lesion: URINARY BLADDER: PAPILLOMA, Dose [Carcinogen]: 100 MG/KG BW DEN ONCE FOLLOWED BY 20 MG/KG BW MNU 4 TIMES AND 0.05% BBN IN DRINKING WATER DURING FIRST 2 WK THEN 40 MG/K, Promoter: NONE USED): 7%, 0%, 100%, not significant | tumour outcome (control, treated, inhibition, significance) (Carcinogen: DIETHYLNITROSAMINE, 55-18-5, N-METHYL-N-NITROSOUREA, 684-93-5, N-BUTYL-N-(4-HYDROXYBUTYL)NITROSAMINE, 3817-11-6, DIMETHY, Carcinogen: DIETHYLNITROSAMINE, 55-18-5, N-METHYL-N-NITROSOUREA, 684-93-5, N-BUTYL-N-(4-HYDROXYBUTYL)NITROSAMINE, 3817-11-6, DIMETHY, Dose [Inhibitor]: 0, 1% IN THE DIET FOR 24 WK BEGINNING 1 DAY POST CARCINOGEN TREATMENT (STUDY DURATION: 28 WK), Strain/Sex: F344/MALE, Target Tissue: Type of Lesion: LARGE INTESTINE: ADENOMA, Dose [Carcinogen]: 100 MG/KG BW DEN ONCE FOLLOWED BY 20 MG/KG BW MNU 4 TIMES AND 0.05% BBN IN DRINKING WATER DURING FIRST 2 WK THEN 40 MG/K, Promoter: NONE USED): 27%, 0%, 100%, p<0.05
